According to US20060211744A1, “3-Pyridinecarboxamide reduces nerve degeneration” (Children's Medical Center, priority 2005, published 2006):

What was measured:
Type in all cases: cell-based
[1] = test system: cultured DRG neurons (transected axons); experiment: Axon degeneration after transection of axons of cultured DRG neurons (Wallerian degeneration); details: sirturin inhibitors; nicotinamide at 50 μM
Experimental: (§1) As a first step in examining the role of NAD in Wallerian degeneration, we used an ultra-sensitive high-performance liquid chromatography (HPLC) method (Micheli and Sestini, 1997) to measure the concentration of NAD and its derivatives in degenerating axons. To do this, the acidic lysates were prepared from axonal segments collected at different time points after transecting the axons from cultured dorsal root ganglia (DRG) and resolved by reverse-phase chromatography. 2 hr after axotomy, when the transected axons were still morphologically indistinguishable from their uncut controls, NAD levels began to decrease. This NAD decrease continued over the course of degeneration, reaching about 50% at 4 hr post-axotomy, to almost undetectable levels by 6 hr after axotomy, when early morphological signs of degeneration began to develop. […] By a similar approach of alkaline extraction (Micheli and Sestini, 1997), it has been difficult for us to detect NADH in the axonal extracts, presumably due to the low abundance of NADH and the high NAD/NADH ratio reported in mammalian cells (Zhang et al., 2002, Kasischke et al., 2004, Kannurpatti et al., 2004).
To definitively determine whether preventing the local decrease in NAD levels could mediate axon protection, we employed soma-free axonal segments that have been separated from their soma as models to examine the protective effects of different pharmacological treatments. It has been shown that exogenously provided NAD, when directly added to the culture medium of DRG neurons, can be transported across the axonal membrane (Araki et al., 2004). Thus, we first examined the protective effects of different concentrations of NAD added to the culture before or after axon transection and removal of ganglia.
To further assess the local and nuclear contribution to such an NAD-dependent protection, we compared the protective effects of NAD provided at different time points. […] In this respect, our results are inconsistent with those shown by Araki et al (2004), possibly due to the different concentrations of NAD used in our studies (1-20 mM) and by Araki et al (0.1 to 1 mM).
We next attempted to explore the possible mechanisms underlying this local NAD-dependent axon protection. […] A possible explanation for this discrepancy between Araki et al (2004) and our results is the different approaches used to block Sirt1 activity. […] It is known that […], other sirturins exist and some of these proteins are localized in the cytoplasmic compartment (Onyango et al., 2002; North et al., 2003).

[2] = test system: transected axons from cultured dorsal root ganglia (DRG); experiment: HPLC measurement of NAD and ATP levels in degenerating axons of cultured DRG
Experimental: as §1
In addition to acting as co-factors for Sirt1 and other NAD-dependent enzymes, NAD is also essential for ATP-synthesizing redox reactions which are involved in glycolysis and oxidative phosphorylation (Shibata et al., 1991). […]

[3] = test system: cultured hippocampal neurons; experiment: Synaptic loss and process degeneration in cultured hippocampal neurons (dominant-negative Nmnat1); details: 50-200 μM, up to 72 hr
Description: We next attempted to examine whether decreasing NAD levels can induce similar “dying-back” axon degeneration in neurons with established synaptic connections. Such experiments might allow us to assess whether the degenerative processes in axons and other neuronal structures, including synaptic structures and dendritic processes, share similar mechanisms. To do this, we introduced both wild type and dominant negative Nmnat1 into cultured hippocampal neurons at 20 days in vitro (DIV 20), when their synaptic connections have formed and matured (Brewer et al. 1993), and examined their effects on axons as well as dendrites and synapses. As a conventional approach to visualize these neuronal structures, we also co-infected the hippocampal neurons with HSV expressing YFP. […] Moreover, neuronal NAD levels declined from 24-48 hr post-infection with viruses expressing dominant-negative Nmnat1 but not wild type Nmnat1 or YFP. Thus, we decided to focus our analysis on the first 60 hours post-infection.
To monitor changes in synaptic structures, we co-infected DIV20 neurons with HSV expressing YFP and wild type or the mutant Nmnat1, and quantified both spine density and the length and branching of axons and dendrites. As the density of dendritic spines has been considered a reliable indicator for synapse number (reviewed by Hering and Sheng, 2001), we performed high-resolution YFP imaging in neurons co-expressing YFP and Nmnat1 proteins at the indicated time points post-infection to measure the spine densities in these co-infected neurons. Dendrite length and branching patterns were analyzed using Sholl's method of regularly spaced concentric circles centered on the neuronal soma (Sholl, 1953). […]
In the experiments described above, we also performed immunostaining with antibodies against the presynaptic marker bassoon, and found a decrease of positively-stained synaptic structures. However, due to the complex morphology of the axons that makes it extremely difficult to quantify the axonal length in DIV20 hippocampal neurons, we […]. […]

In the case of `NC(=O)c1cccnc1` [nicotinamide, 3-pyridinecarboxamide], the “attenuation of the protective effect of Nmnat1 or NAD” value [1] is reported as “did not attenuate the protective effect”, the “axonal NAD levels after transection (HPLC)” value ([2]; exogenously applied) is reported as “delayed the decrease of axonal NAD levels” and the “ATP levels in transected axons separated from their somas” value ([2]; exogenously provided) is reported as “delayed the decrease of ATP levels”. The “dendritic spine quantity or structure, compound alone” value [3] was “did not induce significant changes”.
